{"source": "patent US10710978B2", "about": "“STK4 inhibitors for treatment of hematologic malignancies” (Dana-Farber Cancer Institute, Inc., priority 2015, dated 2020)", "test_in_all_cases": "KiNativ assay", "type_in_all_cases": "binding", "conditions_in_all_cases": "H929 live cell", "key": {"[1]": {"tested_on": "MER, TYRO3", "in_short": "(§1)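 Mass spectrometry read-out of a KiNativ profile gave IC50 values; compounds were screened at 10 μM in duplicate in live H929 cells.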"}, "[2]": {"target": "MAP3K3 (Homo sapiens (Human), UniProt Q99759)", "sequence (Q99759 whole entry)": "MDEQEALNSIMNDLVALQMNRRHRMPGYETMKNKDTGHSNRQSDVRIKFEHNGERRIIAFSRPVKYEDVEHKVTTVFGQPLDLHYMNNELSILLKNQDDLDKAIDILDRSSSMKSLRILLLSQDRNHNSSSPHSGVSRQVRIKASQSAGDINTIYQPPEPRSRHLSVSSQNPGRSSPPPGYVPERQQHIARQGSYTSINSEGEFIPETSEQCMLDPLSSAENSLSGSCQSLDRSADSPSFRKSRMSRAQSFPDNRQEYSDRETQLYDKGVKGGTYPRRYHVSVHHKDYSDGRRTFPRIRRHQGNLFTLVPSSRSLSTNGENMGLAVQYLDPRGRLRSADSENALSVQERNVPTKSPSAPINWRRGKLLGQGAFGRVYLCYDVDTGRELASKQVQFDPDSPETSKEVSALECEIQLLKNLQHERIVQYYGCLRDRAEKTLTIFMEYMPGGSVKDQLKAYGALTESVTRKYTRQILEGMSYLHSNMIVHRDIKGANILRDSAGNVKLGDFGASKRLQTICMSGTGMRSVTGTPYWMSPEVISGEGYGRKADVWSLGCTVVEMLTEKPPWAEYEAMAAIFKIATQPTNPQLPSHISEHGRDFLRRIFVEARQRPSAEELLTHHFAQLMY", "in_short": "(§2)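 Each compound is applied at 10 μM to live H929 cells in duplicate. Kinase activity-site labelling is then analysed by KiNativ. IC50 is obtained by mass spectrometry.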"}, "[3]": {"target": "CDK6 (Homo sapiens (Human), UniProt Q00534)", "protocol": "Biochemical IC50s of the compounds of the present disclosure against various kinases were measured in a KiNativ assay. Compounds were screened in duplicate at 10 μM in H929 live cell. IC50 was measured via Mass spectroscopy (MS)."}, "[4]": {"target": "GAK (Homo sapiens (Human), UniProt O14976)", "sequence (O14976 whole entry)": "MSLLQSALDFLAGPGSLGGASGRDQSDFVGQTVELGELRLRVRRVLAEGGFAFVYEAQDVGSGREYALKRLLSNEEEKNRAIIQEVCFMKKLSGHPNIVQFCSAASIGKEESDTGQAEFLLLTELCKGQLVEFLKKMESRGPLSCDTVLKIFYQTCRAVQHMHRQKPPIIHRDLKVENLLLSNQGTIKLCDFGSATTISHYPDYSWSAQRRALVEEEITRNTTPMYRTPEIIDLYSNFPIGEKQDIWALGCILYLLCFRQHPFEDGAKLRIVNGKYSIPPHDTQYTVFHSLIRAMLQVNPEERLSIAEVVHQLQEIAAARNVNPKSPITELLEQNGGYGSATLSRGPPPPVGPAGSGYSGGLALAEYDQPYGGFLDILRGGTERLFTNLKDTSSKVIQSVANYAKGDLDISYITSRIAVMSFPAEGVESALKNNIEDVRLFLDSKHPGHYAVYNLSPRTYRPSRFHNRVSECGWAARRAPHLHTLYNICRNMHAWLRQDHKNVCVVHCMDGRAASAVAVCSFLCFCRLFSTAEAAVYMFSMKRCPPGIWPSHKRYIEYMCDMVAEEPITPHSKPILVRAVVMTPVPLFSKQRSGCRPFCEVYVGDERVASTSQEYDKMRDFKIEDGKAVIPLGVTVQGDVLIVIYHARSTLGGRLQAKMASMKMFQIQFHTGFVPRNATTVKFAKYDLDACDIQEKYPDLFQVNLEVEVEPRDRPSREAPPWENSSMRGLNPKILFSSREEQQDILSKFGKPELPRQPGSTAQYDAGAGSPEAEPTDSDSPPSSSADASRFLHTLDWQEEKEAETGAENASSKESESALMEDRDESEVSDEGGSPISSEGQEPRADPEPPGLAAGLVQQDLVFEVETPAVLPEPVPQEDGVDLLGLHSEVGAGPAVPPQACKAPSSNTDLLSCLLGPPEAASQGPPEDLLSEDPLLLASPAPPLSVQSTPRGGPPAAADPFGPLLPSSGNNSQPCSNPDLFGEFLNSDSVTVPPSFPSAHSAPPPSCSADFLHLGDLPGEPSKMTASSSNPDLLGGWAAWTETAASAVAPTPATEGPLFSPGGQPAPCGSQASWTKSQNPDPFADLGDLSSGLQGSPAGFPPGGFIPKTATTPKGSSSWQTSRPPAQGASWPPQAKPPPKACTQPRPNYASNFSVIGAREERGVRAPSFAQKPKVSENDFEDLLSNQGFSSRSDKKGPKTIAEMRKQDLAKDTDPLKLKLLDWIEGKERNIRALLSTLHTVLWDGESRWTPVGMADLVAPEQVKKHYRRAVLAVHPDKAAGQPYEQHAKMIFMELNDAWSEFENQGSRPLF", "in_short": "as §1"}, "[5]": {"target": "MELK (Homo sapiens (Human), UniProt Q14680)", "in_short": "as §1"}, "[6]": {"tested_on": "PCTAIRE2, PCTAIRE3", "in_short": "as §2"}, "[7]": {"target": "LATS2 (Homo sapiens (Human), UniProt Q9NRM7)", "sequence (Q9NRM7 whole entry)": "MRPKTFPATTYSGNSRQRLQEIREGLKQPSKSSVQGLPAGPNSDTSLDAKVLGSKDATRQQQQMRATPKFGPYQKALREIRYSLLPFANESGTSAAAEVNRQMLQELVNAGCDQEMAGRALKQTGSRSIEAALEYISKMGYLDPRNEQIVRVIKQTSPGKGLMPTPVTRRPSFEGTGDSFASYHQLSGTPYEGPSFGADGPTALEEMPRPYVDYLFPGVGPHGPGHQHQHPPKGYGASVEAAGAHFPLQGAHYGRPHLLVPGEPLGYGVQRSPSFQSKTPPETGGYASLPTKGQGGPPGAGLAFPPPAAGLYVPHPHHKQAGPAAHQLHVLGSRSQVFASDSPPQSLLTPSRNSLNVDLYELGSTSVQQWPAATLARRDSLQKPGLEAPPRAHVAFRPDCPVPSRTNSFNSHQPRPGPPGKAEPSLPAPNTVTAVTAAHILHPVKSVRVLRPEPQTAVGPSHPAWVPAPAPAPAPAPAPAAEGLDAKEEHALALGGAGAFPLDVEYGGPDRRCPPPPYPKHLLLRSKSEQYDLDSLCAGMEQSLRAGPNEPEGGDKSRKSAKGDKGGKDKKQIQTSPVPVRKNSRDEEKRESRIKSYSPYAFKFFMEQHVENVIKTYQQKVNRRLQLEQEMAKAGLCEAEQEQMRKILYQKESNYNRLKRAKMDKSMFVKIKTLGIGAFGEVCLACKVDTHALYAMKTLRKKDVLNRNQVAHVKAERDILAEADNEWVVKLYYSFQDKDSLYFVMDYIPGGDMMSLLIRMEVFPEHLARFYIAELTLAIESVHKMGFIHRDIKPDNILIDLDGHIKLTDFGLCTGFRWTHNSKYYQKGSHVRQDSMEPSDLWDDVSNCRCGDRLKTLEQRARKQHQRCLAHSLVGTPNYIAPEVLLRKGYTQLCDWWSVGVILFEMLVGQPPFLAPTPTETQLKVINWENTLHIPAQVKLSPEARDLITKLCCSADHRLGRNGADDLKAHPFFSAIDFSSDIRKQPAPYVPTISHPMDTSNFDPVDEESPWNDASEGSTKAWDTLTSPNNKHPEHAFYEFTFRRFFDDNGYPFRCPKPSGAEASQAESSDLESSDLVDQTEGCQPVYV", "in_short": "as §1"}, "[8]": {"tested_on": "ALK2, ALK4, ALK7, BMPR1B, TGFbR1", "in_short": "as §2"}, "[9]": {"target": "PCTAIRE1 (Homo sapiens (Human), UniProt Q00536)", "in_short": "as §2"}, "[10]": {"target": "GPRK6 (Homo sapiens (Human), UniProt P43250)", "in_short": "as §1"}, "[11]": {"target": "ZC3/MINK (Homo sapiens (Human), UniProt Q8N4C8)", "sequence (Q8N4C8 whole entry)": "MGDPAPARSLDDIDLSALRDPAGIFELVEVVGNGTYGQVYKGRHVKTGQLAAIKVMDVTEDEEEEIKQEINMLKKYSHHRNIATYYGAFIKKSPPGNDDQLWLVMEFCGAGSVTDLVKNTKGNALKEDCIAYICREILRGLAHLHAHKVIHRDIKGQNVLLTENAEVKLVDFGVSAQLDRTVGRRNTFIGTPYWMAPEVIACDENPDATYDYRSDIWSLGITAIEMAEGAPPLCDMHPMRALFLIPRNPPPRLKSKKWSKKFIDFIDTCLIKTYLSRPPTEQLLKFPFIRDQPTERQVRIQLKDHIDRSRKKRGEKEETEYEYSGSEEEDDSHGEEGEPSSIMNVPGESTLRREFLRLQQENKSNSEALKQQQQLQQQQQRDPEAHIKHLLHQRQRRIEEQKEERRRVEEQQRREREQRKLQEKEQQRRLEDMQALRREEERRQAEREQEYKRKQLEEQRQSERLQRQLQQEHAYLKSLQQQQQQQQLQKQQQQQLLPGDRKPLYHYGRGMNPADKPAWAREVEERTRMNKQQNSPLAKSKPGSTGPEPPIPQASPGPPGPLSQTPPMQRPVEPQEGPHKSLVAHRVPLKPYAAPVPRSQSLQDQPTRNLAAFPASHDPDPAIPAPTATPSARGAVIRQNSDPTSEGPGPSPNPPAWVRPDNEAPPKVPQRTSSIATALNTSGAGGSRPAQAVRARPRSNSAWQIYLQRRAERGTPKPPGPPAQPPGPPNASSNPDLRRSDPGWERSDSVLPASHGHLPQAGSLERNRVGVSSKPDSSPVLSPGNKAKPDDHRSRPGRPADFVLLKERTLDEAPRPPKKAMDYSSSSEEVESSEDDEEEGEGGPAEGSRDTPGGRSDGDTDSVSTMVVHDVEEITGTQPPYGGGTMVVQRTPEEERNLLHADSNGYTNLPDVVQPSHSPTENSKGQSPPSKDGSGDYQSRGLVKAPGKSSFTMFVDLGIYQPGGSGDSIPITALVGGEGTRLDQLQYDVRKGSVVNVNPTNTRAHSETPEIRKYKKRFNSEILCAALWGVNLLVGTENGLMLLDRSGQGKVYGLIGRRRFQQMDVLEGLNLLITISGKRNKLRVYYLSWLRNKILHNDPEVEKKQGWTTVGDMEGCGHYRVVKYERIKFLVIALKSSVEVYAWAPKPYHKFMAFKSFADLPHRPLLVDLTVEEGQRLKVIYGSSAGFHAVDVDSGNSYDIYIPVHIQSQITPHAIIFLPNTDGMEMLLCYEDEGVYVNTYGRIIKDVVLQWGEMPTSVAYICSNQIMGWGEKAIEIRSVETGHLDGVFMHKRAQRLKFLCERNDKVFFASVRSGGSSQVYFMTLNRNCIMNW", "in_short": "as §2"}, "[12]": {"target": "PIP4K2B (Homo sapiens (Human), UniProt P78356)", "in_short": "as §2"}, "[13]": {"target": "MAP3K15 (Homo sapiens (Human), UniProt Q6ZN16)", "in_short": "as §2"}, "[14]": {"target": "TAK1 (Homo sapiens (Human), UniProt O43318)", "in_short": "as §1"}, "[15]": {"target": "PYK2 (Homo sapiens (Human), UniProt Q14289)", "in_short": "as §2"}, "[16]": {"target": "ATM (Homo sapiens (Human), UniProt Q13315)", "in_short": "as §2"}, "[17]": {"target": "PAK2 (Homo sapiens (Human), UniProt Q13177)", "sequence (Q13177 whole entry)": "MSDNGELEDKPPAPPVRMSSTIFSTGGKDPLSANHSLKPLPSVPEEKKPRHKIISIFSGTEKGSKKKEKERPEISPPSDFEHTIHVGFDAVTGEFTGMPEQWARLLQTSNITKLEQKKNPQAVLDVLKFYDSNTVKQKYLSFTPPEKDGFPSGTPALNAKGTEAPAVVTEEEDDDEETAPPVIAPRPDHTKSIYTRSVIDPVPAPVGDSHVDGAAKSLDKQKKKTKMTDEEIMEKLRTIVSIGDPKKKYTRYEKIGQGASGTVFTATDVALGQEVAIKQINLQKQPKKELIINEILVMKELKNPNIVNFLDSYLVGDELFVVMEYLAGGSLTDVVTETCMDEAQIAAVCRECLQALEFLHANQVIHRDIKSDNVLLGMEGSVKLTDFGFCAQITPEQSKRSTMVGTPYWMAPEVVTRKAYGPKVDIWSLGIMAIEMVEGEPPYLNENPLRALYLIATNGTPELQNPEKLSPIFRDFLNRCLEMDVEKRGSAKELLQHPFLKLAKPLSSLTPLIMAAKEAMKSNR", "in_short": "as §2"}, "[18]": {"tested_on": "MAST1, MAST2", "in_short": "as §1"}, "[19]": {"tested_on": "PCTAIRE1, PCTAIRE3", "in_short": "as §2"}, "[20]": {"target": "LZK (Homo sapiens (Human), UniProt O43283)", "in_short": "as §2"}, "[21]": {"target": "CaMK4 (Homo sapiens (Human), UniProt Q16566)", "in_short": "as §1"}, "[22]": {"target": "Erk5 (Homo sapiens (Human), UniProt Q13164)", "in_short": "as §1"}, "[23]": {"conditions": "range class, read-out: % inhibition"}}, "note": "Where two headings read alike, the source gives them in different places.", "data": [{"smiles": "Nc1ncc(-c2ccc(NS(=O)(=O)C3CC3)cc2F)cc1-c1ccc2c(c1)CCNC2=O", "note": "[Compound I-51, N-(4-(6-amino-5-(1-oxo-1,2,3,4-tetrahydroisoquinolin-6-yl)pyridin-3-yl)-3-fluorophenyl) cyclopropanesulfonamide]", "values": [{"measurement": "% inhibition", "setting": "[1]; 10 μM, range class", "value": 0.0, "unit": "%"}, {"measurement": "inhibition (10 μM)", "setting": "[1]", "value": "−11.0", "unit": "%"}, {"measurement": "inhibition at 10 µM", "setting": "[2]; [23]", "value": 0, "unit": "%"}, {"measurement": "inhibition at 10 µM", "setting": "[2]; read-out: inhibition (10 μM)", "value": -29.3, "unit": "%"}, {"measurement": "inhibition at 10 µM", "setting": "[3]; [23]", "value": 0, "unit": "%"}, {"measurement": "inhibition at 10 µM", "setting": "[3]; read-out: inhibition (10 μM)", "value": 10.7, "unit": "%"}, {"measurement": "inhibition at 10 µM", "setting": "[4]; [23]", "value": "50 to 75", "unit": "%"}, {"measurement": "inhibition at 10 µM", "setting": "[4]; read-out: inhibition (10 μM)", "value": 50.4, "unit": "%"}, {"measurement": "inhibition at 10 µM", "setting": "[5]; [23]", "value": "35 to 40", "unit": "%"}, {"measurement": "inhibition at 10 µM", "setting": "[5]; read-out: inhibition (10 μM)", "value": 49.5, "unit": "%"}, {"measurement": "% inhibition", "setting": "[6]; 10 μM, range class", "value": 0.0, "unit": "%"}, {"measurement": "inhibition (10 μM)", "setting": "[6]", "value": 5.1, "unit": "%"}, {"measurement": "inhibition at 10 µM", "setting": "[7]; [23]", "value": 0, "unit": "%"}, {"measurement": "inhibition at 10 µM", "setting": "[7]; read-out: inhibition (10 μM)", "value": 16.1, "unit": "%"}, {"measurement": "% inhibition", "setting": "[8]; 10 μM, range class", "value": "75-90%"}, {"measurement": "inhibition (10 μM)", "setting": "[8]", "value": 76.2, "unit": "%"}, {"measurement": "inhibition at 10 µM", "setting": "[9]; [23]", "value": 0, "unit": "%"}, {"measurement": "inhibition at 10 µM", "setting": "[9]; read-out: inhibition (10 μM)", "value": -0.2, "unit": "%"}, {"measurement": "inhibition at 10 µM", "setting": "[10]; [23]", "value": 0, "unit": "%"}, {"measurement": "inhibition at 10 µM", "setting": "[10]; read-out: inhibition (10 μM)", "value": 4.7, "unit": "%"}, {"measurement": "inhibition at 10 µM", "setting": "[11]; [23]", "value": "50 to 75", "unit": "%"}, {"measurement": "inhibition at 10 µM", "setting": "[11]; read-out: inhibition (10 μM)", "value": 63.4, "unit": "%"}, {"measurement": "inhibition at 10 µM", "setting": "[12]; [23]", "value": 0, "unit": "%"}, {"measurement": "inhibition at 10 µM", "setting": "[12]; read-out: inhibition (10 μM)", "value": -47.1, "unit": "%"}, {"measurement": "inhibition at 10 µM", "setting": "[13]; [23]", "value": "35 to 40", "unit": "%"}, {"measurement": "inhibition at 10 µM", "setting": "[13]; read-out: inhibition (10 μM)", "value": 36.4, "unit": "%"}, {"measurement": "inhibition at 10 µM", "setting": "[14]; [23]", "value": 0, "unit": "%"}, {"measurement": "inhibition at 10 µM", "setting": "[14]; read-out: inhibition (10 μM)", "value": 30, "unit": "%"}, {"measurement": "inhibition at 10 µM", "setting": "[15]; [23]", "value": 0, "unit": "%"}, {"measurement": "inhibition at 10 µM", "setting": "[15]; read-out: inhibition (10 μM)", "value": 30.1, "unit": "%"}, {"measurement": "inhibition at 10 µM", "setting": "[16]; [23]", "value": "35 to 40", "unit": "%"}, {"measurement": "inhibition at 10 µM", "setting": "[16]; read-out: inhibition (10 μM)", "value": 40.3, "unit": "%"}, {"measurement": "inhibition at 10 µM", "setting": "[17]; [23]", "value": 0, "unit": "%"}, {"measurement": "inhibition at 10 µM", "setting": "[17]; read-out: inhibition (10 μM)", "value": -14, "unit": "%"}, {"measurement": "% inhibition", "setting": "[18]; 10 μM, range class", "value": 0.0, "unit": "%"}, {"measurement": "inhibition (10 μM)", "setting": "[18]", "value": "−2.9", "unit": "%"}, {"measurement": "% inhibition", "setting": "[19]; 10 μM, range class", "value": 0.0, "unit": "%"}, {"measurement": "inhibition (10 μM)", "setting": "[19]", "value": 29.4, "unit": "%"}, {"measurement": "inhibition at 10 µM", "setting": "[20]; [23]", "value": 0, "unit": "%"}, {"measurement": "inhibition at 10 µM", "setting": "[20]; read-out: inhibition (10 μM)", "value": 11.3, "unit": "%"}, {"measurement": "inhibition at 10 µM", "setting": "[21]; [23]", "value": 0, "unit": "%"}, {"measurement": "inhibition at 10 µM", "setting": "[21]; read-out: inhibition (10 μM)", "value": -61.2, "unit": "%"}, {"measurement": "inhibition at 10 µM", "setting": "[22]; [23]", "value": 0, "unit": "%"}, {"measurement": "inhibition at 10 µM", "setting": "[22]; read-out: inhibition (10 μM)", "value": -13.2, "unit": "%"}]}]}
